In publication PMC3948622, “Docking, Synthesis and Antiproliferative Activity of N-Acylhydrazone Derivatives Designed as Combretastatin A4 Analogues” (PLoS ONE, 2014):
Converted amounts (≈) assume the structure as drawn. Where two headings read alike, the source gives them in different places.

Tests used:
HL-60 (human leukemia) = test: In vitro antiproliferative MTT assay, HL-60; type: cell-based; settings: for IC50: Homo sapiens, HL-60; for SI Lymphocyte/ HL-60: IC50 for human lymphocytes/IC50 for cancer cell line
Procedure: (§1) The antiproliferative activity of compounds 5a–r was determined based on an MTT assay and using CA-4 as standard against the tumor cell lines: HL-60 (human leukemia), SF-295 (human glioblastoma), MDA-MB435 (melanoma), PC3M (prostate cancer), OVCAR-8 (ovaries adenocarcinoma), NCI-H258M (pulmonary bronchio-alveolar carcinoma) and HCT-8 (adenocarcinoma ileocecal) (Table 2). To determine the selectivity index of compounds 5a–r, their antiproliferative profile was also evaluated toward human lymphocytes (Table 2).
(§2) Compounds (0.009–5 µg/mL) were tested for cytotoxic activity against selected cancer cell lines: SF-295 (glioblastoma), HCT-8 (colon), MDAMB-435 (melanoma), HL60 (leukemia), PC3M (prostate cancer), OVCAR-8 (ovaries adenocarcinoma) and NCI-H258M (pulmonary bronchio-alveolar carcinoma). All cell lines were kindly obtained from the National Cancer Institute (Bethesda, MD, USA).Tumor cell proliferation was quantified through the ability of living cells to reduce the yellow dye 3-(4,5-dimethyl-2-thiazolyl)-2,5-diphenyl-2H-tetrazolium bromide (MTT, Sigma Aldrich)) to a purple formazan product and absorbance was measured at 595 nm (DTX-880, Beckman Coulter).

MDA-MB435 (melanoma) [1] = test: In vitro antiproliferative MTT assay, MDA-MB435; type: cell-based; settings: IC50 for human lymphocytes/IC50 for cancer cell line
Procedure: as §1, §2

PC3M (prostate cancer) = test: In vitro antiproliferative MTT assay, PC3M; type: cell-based; settings: for IC50: Homo sapiens, PC-3M, Table 2, MTT; for SI Lymphocyte/ PC3M: IC50 for human lymphocytes/IC50 for cancer cell line
Procedure: as §1, §2

[2] = system: OVCAR-8 (ovaries adenocarcinoma); test: In vitro antiproliferative MTT assay, OVCAR-8; type: cell-based; settings: for IC50: Homo sapiens, OVCAR-8, Table 2, MTT; for SI Lymphocyte/ OVCAR-8: IC50 for human lymphocytes/IC50 for cancer cell line
Procedure: as §1, §2

[3] = system: SF-295 (human glioblastoma); test: In vitro antiproliferative MTT assay, SF-295; type: cell-based; settings: for IC50: Homo sapiens, SF-295, read-out: IC50 SF295; for SI Lymphocyte/ SF-295: IC50 for human lymphocytes/IC50 for cancer cell line
Procedure: as §1, §2

[4] = system: HCT-8 (adenocarcinoma ileocecal); test: In vitro antiproliferative MTT assay, HCT-8; type: cell-based; settings: for IC50: Homo sapiens, HCT-8; for SI Lymphocyte/ HCT-8: IC50 for human lymphocytes/IC50 for cancer cell line
Procedure: as §1, §2

[5] = system: NCI-H358M (pulmonary bronchio-alveolar carcinoma); test: In vitro antiproliferative MTT assay, NCI-H358M; type: cell-based; settings: for SI Lymphocyte/ NCI-H358M: IC50 for human lymphocytes/IC50 for cancer cell line; for IC50: NCI-H358M, Table 2, MTT
[6] = Aqueous solubility assay by ultraviolet spectroscopy; type: physicochemical; settings: water (saturated aqueous solution), thermodynamic from solid, 2 hours at 37°C, read-out: Aq. Solubility
Procedure: Ultraviolet spectroscopy was performed using Femto spectrophotometer. The wavelength used in solubility assay was determined by the -λ max characteristic of each compound. Spectra were analyzed in Femtoscan software. Mass spectrometry was obtained by positive ionization at Bruker AmaZon SL and data analyzed in Compass 1.3.SR2 software.
The solubility assay was performed considering the absorptivity of compounds in ultraviolet spectroscopy as described by Schneider and coworkers. The assay wavelength was determined by the λ max characteristic of each compound.
Saturated aqueous solutions were prepared (0.01 mg/mL) and were kept under stirring for 2 hours at 37°C. The supernatant was filtered in 0,45 µm filters and transferred to a quartz cuvette (10 mm) to spectra acquisition.
Solubility was determined by linear regression using as graph plots, solutions prepared by dilutions of the original solution in methanol. The data were obtained in triplicates and the mean values were used to the graph plots. The correlation coefficient (R^2) values were between 0.9972 and 0.9999.

human lymphocytes = test: In vitro antiproliferative assay, human lymphocytes; type: cell-based; settings: Lymphocyte, Table 2
Procedure: as §1
To investigate the selective cytotoxic activity of the N-acylhydrazones derivatives (5a–r), their antiproliferative potency was also assessed toward human lymphocytes and the results were compared to the data from CA-4 ([…]). The selectivity index (SI), which was the IC50 for human lymphocytes/IC50 for cancer cell lines after treatment with CA-4 and N-acylhydrazones (5a–r), was calculated, as depicted in Table 3. […] The best comparative selectivity indices (CA-4 vs 5b) were obtained from the SF-295 (SI = 13), MDA-MB435 (SI = 42) and NCI-H258M (SI = 9.5) tumor cell lines, and the worst results were found for OVCAR-8 (SI = 0.5).

MDA-MB435 (melanoma) [7] = test: In vitro antiproliferative MTT assay, MDA-MB435; type: cell-based; settings: Homo sapiens, MDA-MB-435

Compound	IC50 (HL-60 (human leukemia); Table 2, MTT)	SI Lymphocyte/ HL-60 (HL-60 (human leukemia))	SI Lymphocyte/ MDA-MB345 (MDA-MB435 (melanoma) [1])	IC50 (PC3M (prostate cancer))	IC50 [2]	IC50 ([3]; Table 2, MTT)	SI Lymphocyte/ SF-295 [3]	IC50 ([4]; Table 2, MTT)	SI Lymphocyte/ HCT-8 [4]	SI Lymphocyte/ NCI-H358M [5]	IC50 [5]	solubility at 2 h [6]	IC50 (human lymphocytes)	IC50 (MDA-MB435 (melanoma) [7]; Table 2, MTT)	SI Lymphocyte/ PC3M (PC3M (prostate cancer))	SI Lymphocyte/ OVCAR-8 [2]	melting point	also measured
COc1ccc(/C=C\c2cc(OC)c(OC)c(OC)c2)cc1O [CA-4, Combretastatin A4]	2.1 nM	1.44±0.05	0.42±0.02	4.7 nM	0.37 nM	6.2 nM	0.44±0.04	5.3 nM	0.59±0.01	0.52±0.12	8 nM	5.44 µg/mL (≈ 17.2 µM)	3.2 nM	7.9 nM	–	–	–	–
COc1cc(C(=O)N/N=C/c2cccc(O)c2)cc(OC)c1OC [Compound 5c, (E)-N′-(3-hydroxybenzylidene)-3,4,5-trimetoxybenzohydrazide]	1630 nM	2.60±0.10	32.50±4.50	7510 nM	5780 nM	13000 nM	0.32±0.02	4300 nM	0.96±0.35	0.48±0.01	9500 nM	5.68 µg/mL (≈ 17.2 µM)	4480 nM	120 nM	0.58±0.01	0.80±0.005	227 to 229 °C	–
COc1cc(C(=O)N/N=C/c2ccc(O)cc2)cc(OC)c1OC [Compound 5d, (E)-N′-(4-hydroxybenzylidene)-3,4,5-trimetoxybenzohydrazide]	2630 nM	5.15±0.05	16.06±0.86	4570 nM	6180 nM	16000 nM	0.82±0.02	6540 nM	2.07±0.07	1.16±0.06	11800 nM	15 µg/mL (≈ 45.4 µM)	13400 nM	880 nM	2.96±0.86	2.22±0.02	189 °C	–
COc1cc(C(=O)N/N=C/c2ccc(O)c(O)c2)cc(OC)c1OC [Compound 5e, (E)-N′-(3,4-dihydroxybenzylidene)-3,4,5-trimetoxybenzohydrazide]	9300 nM	0.82±0.02	0.06±0.00	24400 nM	> 25000 nM	> 25000 nM	–	> 25000 nM	–	0.30±0.00	> 25000 nM	3.94 µg/mL (≈ 11.4 µM)	7360 nM	11800 nM	0.30±0.005	0.2±0.00	160 °C	–
COc1ccc(/C=N/NC(=O)c2cc(OC)c(OC)c(OC)c2)cc1OC [Compound 5g, (E)-N′-(3,4-dimethoxybenzylidene)-3,4,5-trimetoxybenzohydrazide]	4430 nM	4.10±0.10	8.41±0.09	12600 nM	7110 nM	18100 nM	0.99±0.005	7050 nM	2.50±0.005	1.80±0.005	10200 nM	1.94 µg/mL (≈ 5.18 µM)	18000 nM	2110 nM	1.44±0.04	2.55±0.05	190 to 191 °C	–
COc1cc(C(=O)N/N=C/c2ccc3c(c2)OCO3)cc(OC)c1OC [Compound 5h, (E)-N′-(benzo[d][1], [3]dioxol-5-ylmethylene)-3,4,5-trimetoxybenzohydrazide]	3070 nM	0.43±0.01	13.17±1.37	1140 nM	1090 nM	860 nM	1.47±0.02	55800 nM	0.02±0.002	0.62±0.02	2150 nM	1.34 µg/mL (≈ 3.74 µM)	1310 nM	110 nM	1.14±0.06	1.16±0.04	222 to 223 °C	–
COc1cc(/C=N/NC(=O)c2cc(OC)c(OC)c(OC)c2)cc(OC)c1OC [Compound 5i, (E)-3,4,5-trimethoxy-N′-(3,4,5-trimethoxybenzylidene)benzohydrazide]	> 25000 nM	1	1	> 25000 nM	> 25000 nM	> 25000 nM	1	> 25000 nM	1	1	> 25000 nM	0.0894 µg/mL (≈ 0.221 µM)	> 61800 nM	> 25000 nM	1	1	232 °C	–
COc1cc(C(=O)N/N=C/c2coc3ccccc3c2=O)cc(OC)c1OC [Compound 5j, (E)-3,4,5-trimethoxy-N′-((4-oxo-4H-chromen-3-yl)methylene)benzohydrazide]	> 25000 nM	1	1	> 25000 nM	> 25000 nM	> 25000 nM	1	23400 nM	2.8	1	> 25000 nM	0.783 µg/mL (≈ 2.05 µM)	> 65400 nM	> 25000 nM	1	1	205 to 206 °C	–
COc1cc(C(=O)N/N=C/c2ccc(C)cc2)cc(OC)c1OC [Compound 5o, (E)-3,4,5-trimethoxy-N′-(4-methylbenzylidene) benzohydrazide]	4.8 nM	1.59±0.09	0.21±0.01	12.7 nM	8.2 nM	93 nM	0.08±0.00	46 nM	0.15±0.005	0.009±0.001	891 nM	6.93 µg/mL (≈ 21.1 µM)	7.3 nM	35 nM	0.56±0.04	0.91±0.01	–	–
COc1cc(C(=O)N/N=C/c2ccc(Br)cc2)cc(OC)c1OC [Compound 5r, (E)-N′-(4-bromobenzylidene) - 3,4,5-trimetoxybenzohyidrazide]	10.9 nM	3.07±0.83	1.81	12.7 nM	7.3 nM	59 nM	0.49±0.05	22 nM	1.57±0.17	0.19±0.01	167 nM	0.262 µg/mL (≈ 0.666 µM)	31.4 nM	18.3 nM	2.29±0.20	4.02±0.28	–	–
COc1cc(C(=O)N(C)/N=C/c2ccccc2)cc(OC)c1OC [Compound 11, (E)-N′-benzylidene-3,4,5-trimethoxy-N-methylbenzohydrazide]	–	–	–	–	–	–	–	–	–	–	–	–	–	–	–	–	71 to 73 °C	IC50 (HL-60 (human leukemia); Table 4): 30 nM; IC50 ([3]; Table 4): 3800 nM; IC50 ([4]; Table 4): 540 nM; IC50 (MDA-MB435 (melanoma) [7]; Table 4): 1910 nM
